{"source": "patent US10765114B2", "about": "“4-amino-6-(pyridyl and 2-substitutedphenyl)-picolinates and 6-amino-2-(pyridyl and 2-substitutedphenyl)-pyrimidine-4-carboxylates and their use as herbicides” (Dow AgroSciences LLC, priority 2013, dated 2020)", "data": [{"system": "Key Grass and Sedge Weeds as well as Grass Crops", "experiment": "Post-Emergent Test II (Table 6)", "type": "in vivo", "conditions": "post-emergence, 336 h, ZEAMX: maize, corn (Zea mays), 70 g ai/ha, 14 days after application, read-out: Visual Growth Reduction (%) 14 Days After Application ZEAMX", "method_in_brief": "(§1)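 Visual injury ratings (0 = no injury, 100 = complete kill) were taken 14 days after treatment relative to untreated plants. Seedlings at the first or second true leaf stage received an overhead spray at 187 L/ha, and solvent-blank sprayed plants served as controls.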", "units": {"pest or weed control at 70 g/ha": "%"}, "values": [{"compound": "COC(=O)c1nc(-c2ccc(OC)nc2)c(F)c(N)c1Cl", "note": "[Compound 62]", "pest or weed control at 70 g/ha": "95 to 100"}]}, {"system": "Key Grass and Sedge Weeds as well as Grass Crops", "experiment": "Post-Emergent Test II (Table 6)", "type": "in vivo", "conditions": "post-emergence, 336 h, ZEAMX: maize, corn (Zea mays), 140 g ai/ha, 14 days after application, read-out: Visual Growth Reduction (%) 14 Days After Application ZEAMX", "method_in_brief": "as §1", "units": {"pest or weed control at 140 g/ha": "%"}, "values": [{"compound": "COC(=O)c1nc(-c2ccc(OC)nc2)c(F)c(N)c1Cl", "note": "[Compound 62]", "pest or weed control at 140 g/ha": "95 to 100"}]}, {"system": "Key Broadleaf Weed and Crop Species", "experiment": "Post-Emergent Test II (Table 5)", "type": "in vivo", "conditions": "Abutilon theophrasti, post-emergence, 336 h, ABUTH: velvetleaf (Abutilon theophrasti), application rate 70 (kg ai/ha; footnote: g ai/ha), read-out: Visual Growth Reduction (%) 14 Days After Application ABUTH", "method_in_brief": "as §1", "units": {"pest or weed control at 70 g/ha": "%"}, "values": [{"compound": "COC(=O)c1nc(-c2ccc(OC)nc2)c(F)c(N)c1Cl", "note": "[Compound 62]", "pest or weed control at 70 g/ha": "95 to 100"}]}, {"system": "Key Broadleaf Weed and Crop Species", "experiment": "Post-Emergent Test II (Table 5)", "type": "in vivo", "conditions": "Abutilon theophrasti, post-emergence, 336 h, ABUTH: velvetleaf (Abutilon theophrasti), application rate 140 (kg ai/ha; footnote: g ai/ha), read-out: Visual Growth Reduction (%) 14 Days After Application ABUTH", "method_in_brief": "as §1", "units": {"pest or weed control at 140 g/ha": "%"}, "values": [{"compound": "COC(=O)c1nc(-c2ccc(OC)nc2)c(F)c(N)c1Cl", "note": "[Compound 62]", "pest or weed control at 140 g/ha": "95 to 100"}]}, {"system": "Key Broadleaf Weed and Crop Species", "experiment": "Post-Emergent Test II (Table 5)", "type": "in vivo", "conditions": "Amaranthus retroflexus, post-emergence, 336 h, AMARE: redroot pigweed (Amaranthus retroflexus), application rate 70 (kg ai/ha; footnote: g ai/ha), read-out: Visual Growth Reduction (%) 14 Days After Application AMARE", "method_in_brief": "as §1", "units": {"pest or weed control at 70 g/ha": "%"}, "values": [{"compound": "COC(=O)c1nc(-c2ccc(OC)nc2)c(F)c(N)c1Cl", "note": "[Compound 62]", "pest or weed control at 70 g/ha": "95 to 100"}]}, {"system": "Key Broadleaf Weed and Crop Species", "experiment": "Post-Emergent Test II (Table 5)", "type": "in vivo", "conditions": "Amaranthus retroflexus, post-emergence, 336 h, AMARE: redroot pigweed (Amaranthus retroflexus), application rate 140 (kg ai/ha; footnote: g ai/ha), read-out: Visual Growth Reduction (%) 14 Days After Application AMARE", "method_in_brief": "as §1", "units": {"pest or weed control at 140 g/ha": "%"}, "values": [{"compound": "COC(=O)c1nc(-c2ccc(OC)nc2)c(F)c(N)c1Cl", "note": "[Compound 62]", "pest or weed control at 140 g/ha": "95 to 100"}]}, {"system": "Key Broadleaf Weed and Crop Species", "experiment": "Post-Emergent Test II (Table 5)", "type": "in vivo", "conditions": "Brassica napus, post-emergence, 336 h, BRSSS: oilseed rape, canola (Brassica napus), application rate 70 (kg ai/ha; footnote: g ai/ha), read-out: Visual Growth Reduction (%) 14 Days After Application BRSSS", "method_in_brief": "as §1", "units": {"pest or weed control at 70 g/ha": "%"}, "values": [{"compound": "COC(=O)c1nc(-c2ccc(OC)nc2)c(F)c(N)c1Cl", "note": "[Compound 62]", "pest or weed control at 70 g/ha": "60 to 74"}]}, {"system": "Key Broadleaf Weed and Crop Species", "experiment": "Post-Emergent Test II (Table 5)", "type": "in vivo", "conditions": "Brassica napus, post-emergence, 336 h, BRSSS: oilseed rape, canola (Brassica napus), application rate 140 (kg ai/ha; footnote: g ai/ha), read-out: Visual Growth Reduction (%) 14 Days After Application BRSSS", "method_in_brief": "as §1", "units": {"pest or weed control at 140 g/ha": "%"}, "values": [{"compound": "COC(=O)c1nc(-c2ccc(OC)nc2)c(F)c(N)c1Cl", "note": "[Compound 62]", "pest or weed control at 140 g/ha": "60 to 74"}]}, {"system": "Key Broadleaf Weed and Crop Species", "experiment": "Post-Emergent Test II (Table 5)", "type": "in vivo", "conditions": "Chenopodium album, post-emergence, 336 h, CHEAL: lambsquarters (Chenopodium album), application rate 70 (kg ai/ha; footnote: g ai/ha), read-out: Visual Growth Reduction (%) 14 Days After Application CHEAL", "method_in_brief": "as §1", "units": {"pest or weed control at 70 g/ha": "%"}, "values": [{"compound": "COC(=O)c1nc(-c2ccc(OC)nc2)c(F)c(N)c1Cl", "note": "[Compound 62]", "pest or weed control at 70 g/ha": "95 to 100"}]}, {"system": "Key Broadleaf Weed and Crop Species", "experiment": "Post-Emergent Test II (Table 5)", "type": "in vivo", "conditions": "Chenopodium album, post-emergence, 336 h, CHEAL: lambsquarters (Chenopodium album), application rate 140 (kg ai/ha; footnote: g ai/ha), read-out: Visual Growth Reduction (%) 14 Days After Application CHEAL", "method_in_brief": "as §1", "units": {"pest or weed control at 140 g/ha": "%"}, "values": [{"compound": "COC(=O)c1nc(-c2ccc(OC)nc2)c(F)c(N)c1Cl", "note": "[Compound 62]", "pest or weed control at 140 g/ha": "95 to 100"}]}, {"system": "Key Broadleaf Weed and Crop Species", "experiment": "Post-Emergent Test II (Table 5)", "type": "in vivo", "conditions": "Euphorbia heterophylla, post-emergence, 336 h, EPHHL: wild poinsettia (Euphorbia heterophylla), application rate 70 (kg ai/ha; footnote: g ai/ha), read-out: Visual Growth Reduction (%) 14 Days After Application EPHHL", "method_in_brief": "as §1", "units": {"pest or weed control at 70 g/ha": "%"}, "values": [{"compound": "COC(=O)c1nc(-c2ccc(OC)nc2)c(F)c(N)c1Cl", "note": "[Compound 62]", "pest or weed control at 70 g/ha": "95 to 100"}]}, {"system": "Key Broadleaf Weed and Crop Species", "experiment": "Post-Emergent Test II (Table 5)", "type": "in vivo", "conditions": "Euphorbia heterophylla, post-emergence, 336 h, EPHHL: wild poinsettia (Euphorbia heterophylla), application rate 140 (kg ai/ha; footnote: g ai/ha), read-out: Visual Growth Reduction (%) 14 Days After Application EPHHL", "method_in_brief": "as §1", "units": {"pest or weed control at 140 g/ha": "%"}, "values": [{"compound": "COC(=O)c1nc(-c2ccc(OC)nc2)c(F)c(N)c1Cl", "note": "[Compound 62]", "pest or weed control at 140 g/ha": "95 to 100"}]}, {"system": "Key Broadleaf Weed and Crop Species", "experiment": "Post-Emergent Test II (Table 5)", "type": "in vivo", "conditions": "Helianthus annuus, post-emergence, 336 h, HELAN: sunflower (Helianthus annuus), application rate 70 (kg ai/ha; footnote: g ai/ha), read-out: Visual Growth Reduction (%) 14 Days After Application HELAN", "method_in_brief": "as §1", "units": {"pest or weed control at 70 g/ha": "%"}, "values": [{"compound": "COC(=O)c1nc(-c2ccc(OC)nc2)c(F)c(N)c1Cl", "note": "[Compound 62]", "pest or weed control at 70 g/ha": "95 to 100"}]}, {"system": "Key Broadleaf Weed and Crop Species", "experiment": "Post-Emergent Test II (Table 5)", "type": "in vivo", "conditions": "Helianthus annuus, post-emergence, 336 h, HELAN: sunflower (Helianthus annuus), application rate 140 (kg ai/ha; footnote: g ai/ha), read-out: Visual Growth Reduction (%) 14 Days After Application HELAN", "method_in_brief": "as §1", "units": {"pest or weed control at 140 g/ha": "%"}, "values": [{"compound": "COC(=O)c1nc(-c2ccc(OC)nc2)c(F)c(N)c1Cl", "note": "[Compound 62]", "pest or weed control at 140 g/ha": "95 to 100"}]}, {"system": "Key Broadleaf Weed and Crop Species", "experiment": "Post-Emergent Test II (Table 5)", "type": "in vivo", "conditions": "Viola tricolor, post-emergence, 336 h, VIOTR: wild pansy (Viola tricolor), application rate 70 (kg ai/ha; footnote: g ai/ha), read-out: Visual Growth Reduction (%) 14 Days After Application VIOTR", "method_in_brief": "as §1", "units": {"pest or weed control at 70 g/ha": "%"}, "values": [{"compound": "COC(=O)c1nc(-c2ccc(OC)nc2)c(F)c(N)c1Cl", "note": "[Compound 62]", "pest or weed control at 70 g/ha": "0 to 29"}]}, {"system": "Key Broadleaf Weed and Crop Species", "experiment": "Post-Emergent Test II (Table 5)", "type": "in vivo", "conditions": "Viola tricolor, post-emergence, 336 h, VIOTR: wild pansy (Viola tricolor), application rate 140 (kg ai/ha; footnote: g ai/ha), read-out: Visual Growth Reduction (%) 14 Days After Application VIOTR", "method_in_brief": "as §1", "units": {"pest or weed control at 140 g/ha": "%"}, "values": [{"compound": "COC(=O)c1nc(-c2ccc(OC)nc2)c(F)c(N)c1Cl", "note": "[Compound 62]", "pest or weed control at 140 g/ha": "0 to 29"}]}]}
